In patent US9481654B2, “Compositions and methods for inhibition of the JAK pathway” (Rigel Pharmaceuticals, Inc., priority 2006, dated 2016):
Counter-ions that a name gives are not always drawn.

Assays:
[1] = system: IL-4 stimulated CD23 upregulation in human Ramos B cells (JAK-1/JAK-3, Stat-6); assay: Assay for Ramos B-Cell Line Stimulated with IL-4 (CD23 upregulation, FACS); type: cell-based
Outline: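 Log-phase Ramos B cells (5×10^4 per point, RPMI with 5% serum) pre-incubated with compound or DMSO 1 h at 37° C, then stimulated with IL-4 at 50 units/mL final for 20-24 h. CD23 upregulation measured by staining and flow cytometry.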

[2] = system: primary human T-cells (IL-2 induced proliferation, JAK-1/JAK-3, Stat-5); assay: Primary Human T-Cell Proliferation Assay Stimulated with IL-2 (CellTiter-Glo); type: cell-based; conditions: Table III Example 4
Description: In this assay, primary human T-cells derived from peripheral blood and pre-activated through stimulation of the T-cell receptor and CD28, proliferate in culture in response to the cytokine Interleukin-2 (IL-2). This proliferative response is dependent on the activation of JAK1 and JAK3 tyrosine kinases, which phosphorylate and activate the transcription factor Stat-5. The primary human T-cells are incubated with the 2,4-pyrimidinediamine compounds in the presence of IL-2 for 72 hours, and at the assay endpoint intracellular ATP concentrations are measured to assess cell viability. A reduction in cell proliferation compared to control conditions is indicative of inhibition of the JAK kinase pathway.
Primary human T-cells derived from peripheral blood and pre-activated through stimulation of the T-cell receptor and CD28 proliferate in vitro in response to the cytokine Interleukin-2 (IL-2). This proliferative response is dependent on the activation of JAK-1 and JAK-3 tyrosine kinases, which phosphorylate and activate the transcription factor Stat-5.
Human primary T cells were prepared as follows. […] The lymphocytes at the serum: ficoll interface were recovered and washed twice with 5 volumes of PBS. […] The primary T-cells were stimulated for 3 to 4 days, then transferred to a fresh flask and maintained in RPMI with 10% FBS and 40 U/mL IL-2.
Primary T-cells were washed twice with PBS to remove the IL-2 and resuspended in Yssel's medium at 2×10^6 cells/mL. 50 μL of cell suspension containing 80 U/mL IL-2 was added to each well of a flat bottom 96 well black plate. For the unstimulated control, IL-2 was omitted from the last column on the plate. […] 50 μL of 2× compound was added per well in duplicate and the cells were allowed to proliferate for 72 hours at 37° C.
Proliferation was measured using CellTiter-Glo® Luminescent Cell Viability Assay (Promega), which determines the number of viable cells in culture based on quantitation of the ATP present, as an indicator of metabolically active cells. The substrate was thawed and allowed to come to room temperature. After mixing the Cell Titer-Glo reagent and diluent together, 100 μL was added to each well. The plates were mixed on an orbital shaker for two minutes to induce lysis and incubated at room temperature for an additional ten minutes to allow the signal to equilibrate.

Row | Structure (SMILES) | IC50 ([1]; Table III Example 3) [nM] | IC50 [2] [nM] | IC50 ([1]; Table III Example 3, sodium salt) [nM]
1 | CCS(=O)(=O)NCc1ccc(Nc2nc(Nc3ccc(S(N)(=O)=O)cc3)ncc2F)cc1Cl [Compound I-74, N2-(4-aminosulfonyl)phenyl-N4-(3-chloro-4-ethylsulfonylaminomethyl)phenyl-5-fluoro-2,4-pyrimidinediamine] | 362 | 2250 | 
2 | CCS(=O)(=O)NCc1ccc(Nc2nc(Nc3ccc(C)c(S(N)(=O)=O)c3)ncc2F)cc1Cl [Compound I-76, N2-(3-aminosulfonyl-4-methyl)phenyl-N4-(3-chloro-4-ethylsulfonylaminomethyl)phenyl-5-fluoro-2,4-pyrimidinediamine] | 169 | 463 | 
3 | NS(=O)(=O)c1cc(Nc2ncc(F)c(Nc3ccc(CNS(=O)(=O)C4CC4)cc3)n2)cc(S(N)(=O)=O)c1 [Compound I-82, N4-(4-cyclopropylsulfonylaminomethyl)phenyl-N2-(3,5-diaminosulfonyl)phenyl-5-fluoro-2,4-pyrimidinediamine] | 1100 | 964 | 
4 | CS(=O)(=O)CS(=O)(=O)NCc1ccc(Nc2nc(Nc3ccc(S(N)(=O)=O)cc3)ncc2F)cc1 [Compound I-85, N2-(4-aminosulfonyl)phenyl-5-fluoro-N4-[4-(methylsulfonylmethylsulfonylamino)methyl]phenyl-2,4-pyrimidinediamine] | 3100 | 3900 | 
5 | CS(=O)(=O)CS(=O)(=O)NCc1ccc(Nc2nc(Nc3cccc(S(N)(=O)=O)c3)ncc2F)cc1 [Compound I-86, N2-(3-aminosulfonyl)phenyl-5-fluoro-N4-[4-(methylsulfonylmethylsulfonylamino)methyl]phenyl-2,4-pyrimidinediamine] | 505 | 224 | 
6 | Cc1ccc(Nc2ncc(F)c(Nc3ccc(CNS(=O)(=O)CS(C)(=O)=O)cc3)n2)cc1S(N)(=O)=O [Compound I-87, N2-(3-aminosulfonyl-4-methyl)phenyl-5-fluoro-N4-[4-(methylsulfonylmethylsulfonylamino)methyl]phenyl-2,4-pyrimidinediamine] | 251 | 309 | 
7 | NS(=O)(=O)c1ccc(Nc2ncc(F)c(Nc3ccc(CNS(=O)(=O)c4cccnc4)cc3)n2)cc1 [Compound I-89, N2-(4-aminosulfonyl)phenyl-5-fluoro-N4-[4-(pyrid-3-yl)sulfonylaminomethyl]phenyl-2,4-pyrimidinediamine] | 448 | 1500 | 
8 | Cc1cnc(Nc2ccc(S(N)(=O)=O)cc2)nc1Nc1ccc(CNS(=O)(=O)c2cccnc2)cc1 [Compound I-99, N2-(4-aminosulfonyl)phenyl-5-methyl-N4-[4-(pyrid-3-yl)sulfonylaminomethyl]phenyl-2,4-pyrimidinediamine] | 565 | 954 | 
9 | Cc1ccc(Nc2ncc(F)c(Nc3cccc(CS(=O)(=O)NC4CCN(C)CC4)c3)n2)cc1S(N)(=O)=O [Compound I-107, N2-(3-Aminosulfonyl-4-methylphenyl)-5-fluoro-N4-[3-(1-methylpiperdin-4-ylaminosulfonylmethylene)phenyl]-2,4-pyrimidinediamine] | 2930 | 18100 | 
10 | CN1CCC(NS(=O)(=O)Cc2cccc(Nc3nc(Nc4cccc(S(N)(=O)=O)c4)ncc3F)c2)CC1 [Compound I-108, N2-(3-Aminosulfonylphenyl)-5-fluoro-N4-[3-(1-methylpiperdin-4-ylaminosulfonylmethylene)phenyl]-2,4-pyrimidinediamine] | 5160 | 25800 | 
11 | Cc1cnc(Nc2cccc(S(=O)(=O)NC(=O)CN)c2)nc1Nc1cccc(CNS(=O)(=O)C2CC2)c1 [Compound I-133, N2-[3-N-(2-amino-1-oxoethyl)aminosulfonyl]phenyl-N4-(3-cyclopropylsulfonylaminomethyl)phenyl-5-methyl-2,4-pyrimidinediamine hydrogen chloride salt] | 715 | 1210 | 
12 | Cc1cnc(Nc2cccc(S(=O)(=O)NC(=O)[C@@H](NC(=O)OCc3ccccc3)C(C)C)c2)nc1Nc1cccc(CNS(=O)(=O)C2CC2)c1 [Compound I-147, N2-[3-N-(Cbz-L-Val)aminosulfonyl]phenyl-N4-(3-cyclopropylsulfonylaminomethyl)phenyl-5-methyl-2,4-pyrimidinediamine sodium salt] |  | 25100 | 13800
13 | Cc1cnc(Nc2ccc(S(=O)(=O)Nc3ccccc3)cc2)nc1Nc1ccc(CNS(=O)(=O)C2CC2)cc1 [Compound I-149, N4-(4-cyclopropylsulfonylaminomethyl)phenyl-5-methyl-N2-(4-phenylaminosulfonyl)phenyl-2,4-pyrimidinediamine] | 82.2 | 190 | 
14 | Cc1cnc(Nc2ccc(S(=O)(=O)NC3CCN(C)CC3)cc2)nc1Nc1ccc(CNS(=O)(=O)C2CC2)cc1 [Compound I-151, N4-(4-cyclopropylsulfonylaminomethyl)phenyl-5-methyl-N2-[4-(1-methylpiperidin-4-yl)aminosulfonyl]phenyl-2,4-pyrimidinediamine] | 353 | 1080 | 
15 | Cc1cnc(Nc2cccc(S(=O)(=O)NC3CCN(C)CC3)c2)nc1Nc1ccc(CNS(=O)(=O)C2CC2)cc1 [Compound I-152, N4-(4-cyclopropylsulfonylaminomethyl)phenyl-5-methyl-N2-[3-(1-methylpiperidin-4-yl)aminosulfonyl]phenyl-2,4-pyrimidinediamine] | 166 | 717 | 
16 | Cc1cnc(Nc2ccc(S(=O)(=O)NCc3ccccc3)cc2)nc1Nc1ccc(CNS(=O)(=O)C2CC2)cc1 [Compound I-153, N2-(4-benzylaminosulfonyl)phenyl-N4-(4-cyclopropylsulfonylaminomethyl)phenyl-5-methyl-2,4-pyrimidinediamine] | 80 | 118 | 
17 | Cc1cnc(Nc2ccc(S(=O)(=O)Nc3ccccc3)cc2)nc1Nc1cccc(CNS(=O)(=O)C2CC2)c1 [Compound I-155, N4-(3-cyclopropylsulfonylaminomethyl)phenyl-5-methyl-N2-(4-phenylaminosulfonyl)phenyl-2,4-pyrimidinediamine] | 250 | 1430 | 
18 | Cc1cnc(Nc2cccc(S(=O)(=O)Nc3ccccc3)c2)nc1Nc1cccc(CNS(=O)(=O)C2CC2)c1 [Compound I-156, N4-(3-cyclopropylsulfonylaminomethyl)phenyl-5-methyl-N2-(3-phenylaminosulfonyl)phenyl-2,4-pyrimidinediamine] | 266 | 1080 | 
19 | Cc1cnc(Nc2ccc(S(=O)(=O)NCc3ccccc3)cc2)nc1Nc1cccc(CNS(=O)(=O)C2CC2)c1 [Compound I-157, N2-(4-benzylaminosulfonyl)phenyl-N4-(3-cyclopropylsulfonylaminomethyl)phenyl-5-methyl-2,4-pyrimidinediamine] | 250 | 1100 | 
20 | Cc1cnc(Nc2cccc(S(=O)(=O)NCc3ccccc3)c2)nc1Nc1cccc(CNS(=O)(=O)C2CC2)c1 [Compound I-158, N2-(3-benzylaminosulfonyl)phenyl-N4-(3-cyclopropylsulfonylaminomethyl)phenyl-5-methyl-2,4-pyrimidinediamine] | 300 | 531 | 
21 | Cc1cnc(Nc2ccc(S(=O)(=O)NC3CCN(C)CC3)cc2)nc1Nc1cccc(CNS(=O)(=O)C2CC2)c1 [Compound I-159, N4-(3-cyclopropylsulfonylaminomethyl)phenyl-5-methyl-N2-[4-(1-methylpiperidin-4-yl)aminosulfonyl]phenyl-2,4-pyrimidinediamine] | 539 | 7960 | 
22 | Cc1cnc(Nc2cccc(S(=O)(=O)NC3CCN(C)CC3)c2)nc1Nc1cccc(CNS(=O)(=O)C2CC2)c1 [Compound I-160, N4-(3-cyclopropylsulfonylaminomethyl)phenyl-5-methyl-N2-[3-(1-methylpiperidin-4-yl)aminosulfonyl]phenyl-2,4-pyrimidinediamine] | 242 | 3960 | 
23 | Cc1cnc(Nc2ccc(S(=O)(=O)NCc3ccncc3)cc2)nc1Nc1ccc(CNS(=O)(=O)C2CC2)cc1 [Compound I-168, N4-(4-cyclopropylsulfonylaminomethyl)phenyl-5-methyl-N2-[4-(4-pyridylmethyl)aminosulfonyl]phenyl-2,4-pyrimidinediamine] | 278 | 347 | 
24 | Cc1cnc(Nc2ccc(S(=O)(=O)Nc3cccnc3)cc2)nc1Nc1ccc(CNS(=O)(=O)C2CC2)cc1 [Compound I-171, N4-(4-cyclopropylsulfonylaminomethyl)phenyl-5-methyl-N2-[4-(3-pyridyl)aminosulfonyl]phenyl-2,4-pyrimidinediamine] | 19500 | 42300 | 
